Results from US12319641B2, “Lobaric acid derivative having PTP-1B inhibitory activity, preparation method therefor and use thereof” (SNBIOSCIENCE INC., priority 2019, dated 2025).
pIC50: −log10 of the molar value. Like-named read-outs stand apart in the source and are kept apart here.

Tests used:
[1] = test system: db/db mice (type 2 diabetes model animal); test: Blood glucose after daily oral administration in diabetic disease model animals; assay type: in vivo; conditions: for antidiabetic effects by oral administration: diabetic disease model animals
Procedure: To more accurately measure antidiabetic effects of dimethyl lobamide, 200 μl of PBS as a control and 50 mg/kg of dimethyl lobamide compound as an experimental group were orally administered daily to 7-week-old male db/db mice (type 2 diabetes model animal, C57/BLKS/J-db/db, Korea Research Institute of Bioscience and Biotechnology). Thereafter, blood glucose was measured once a week. At this time, after oral administration, blood glucose was measured after fasting for 6 hours.

[2] = target: T1, protein tyrosine phosphatase-1B (PTP-1B) (Homo sapiens, UniProt P18031); conditions: comparison compounds; lobarstin from Korean Patent Registration No. 10-1481141; read-out: IC50 of PTP-1B inhibitory activity, comparison value; cited from earlier work
T1 construct: purchased Bioneer, Korea
T1 sequence (P18031 1-435): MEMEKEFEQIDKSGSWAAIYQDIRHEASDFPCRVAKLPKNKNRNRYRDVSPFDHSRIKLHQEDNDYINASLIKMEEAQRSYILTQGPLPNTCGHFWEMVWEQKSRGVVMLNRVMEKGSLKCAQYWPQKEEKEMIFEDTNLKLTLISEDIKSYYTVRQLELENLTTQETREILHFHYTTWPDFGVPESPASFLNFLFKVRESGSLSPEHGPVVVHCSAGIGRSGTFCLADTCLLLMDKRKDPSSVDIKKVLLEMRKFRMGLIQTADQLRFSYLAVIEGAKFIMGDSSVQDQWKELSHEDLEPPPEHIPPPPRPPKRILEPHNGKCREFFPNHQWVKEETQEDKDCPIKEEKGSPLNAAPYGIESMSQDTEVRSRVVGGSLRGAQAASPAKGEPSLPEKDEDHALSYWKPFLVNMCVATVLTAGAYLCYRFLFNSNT

[3] = target: T1, protein tyrosine phosphatase-1B (PTP-1B); test: PTP-1B inhibitory activity, enzyme activity measured spectroscopically with pNPP substrate; assay type: biochemical
Procedure: In order to analyze protein tyrosine phosphatase-1B (PTP-1B) inhibitory activity, enzyme activity was measured spectroscopically.
Specifically, to 0.5 μg/mL of PTP-1B (Bioneer, Korea), PTP-1B buffer (50 mM Bis-tris buffer, pH 6.5, 1 mM EDTA, 1 mM DTT), dimethyl lobamide (M11A7) (0, 0.4, 0.8, 1.6, 3.12, 6.25, 12.5, 25 nM) and the substrate pNPP (para Nitrophenyl phosphate, Sigma, USA) were added and reacted at room temperature for 30 minutes. Then, 10 N NaOH was added thereto, followed by reaction at room temperature for 5 minutes to terminate the reaction between PTP-1B, dimethyl lobamide and the substrate. Thereafter, the absorbance was measured at 405 nm.

[4] = Body weight after oral administration in diabetic disease model animals; assay type: in vivo; conditions: db/db mice; for change in body weight compared to the control: oral administration
Procedure: To 7-week-old male db/db mice (type 2 diabetes model animal, C57/BLKS/J-db/db, Korea Research Institute of Bioscience and Biotechnology), 200 μl of PBS as a control and 50 mg/kg of dimethyl lobamide as an experimental group were orally administered daily. After administration, in order to investigate the change in body weight, the compound (dimethyl-lobamide) was orally administered twice a week at a fixed time, and then the body weight was measured using an animal scale.

| pIC50 ([3]; 0.5 μg/mL PTP-1B, pNPP, room temperature 30 minutes, absorbance 405 nm) | Structure (SMILES) | antidiabetic effects by oral administration [1] | pIC50 [2] | PTP-1B inhibition rate ([3]; 0-25 nM) | average blood glucose on day 0 ([1]; db/db mice, 50 mg/kg oral daily, after fasting 6 hours, day 0) [mg/dL] | average blood glucose on day 7 ([1]; db/db mice, 50 mg/kg oral daily, after fasting 6 hours, day 7) [mg/dL] | average blood glucose on day 14 ([1]; db/db mice, 50 mg/kg oral daily, after fasting 6 hours, day 14) [mg/dL] | increase in blood glucose versus control ([1]; db/db mice, 50 mg/kg oral, day 0 to 14) | average body weight on day 0 ([4]; 50 mg/kg oral, day 0) [g] | average body weight on day 7 ([4]; 50 mg/kg oral, day 7) [g] | average body weight on day 14 ([4]; 50 mg/kg oral, day 14) [g] | change in body weight compared to the control [4] | change in body weight compared to the control ([4]; listed as dimethyl-lobamide) |
| --- | --- | --- | --- | --- | --- | --- | --- | --- | --- | --- | --- | --- | --- |
| – | CCC/C=C1/OC(=O)c2c(Oc3c(O)cc(O)c(C(=O)O)c3CCCCC)cc(OC)cc21 [lobarstin, reference compound] | no antidiabetic effects by oral administration | 6.81 | – | – | – | – | – | – | – | – | – | – |
| 8.67 | CCCCCc1c(Oc2cc(OC)cc(C(=O)CCCC)c2C(=O)N(C)C)c(O)cc(O)c1C(=O)O [dimethyl lobamide] | could have the antidiabetic effects by oral administration | – | increased in a concentration-dependent manner | 193 | 194 | 268 | lower increase in blood glucose than the control | 30.95 | 31.78 | 34.86 | body weight reducing effects were demonstrated | no significant change in body weight |
